Patent US8853406B2, “Substituted phenylenediamines as inhibitors of the interaction between MDM2 and P53” (Janssen Pharmaceutica NV, priority 2007, dated 2014)

Test system: human U87 gliomoblastoma xenograft tumors
Experiment: In vivo anti tumour effects, U87 glioblastoma xenograft
Design: species or system NMRI Nude mice
Conditions: for tumor growth of pre-established U87 xenograft: 21 days; for in vivo antitumoral activity: s.c. U87 xenograft in NMRI Nude mice
Method: FIG. 7 is the Antitumoral effect of compound No. 1 in U87 Glioblastoma Xenograft Tumors in NMRI Nude mice: • On day 0, male NMRI Nude mice were inoculated with a single subcutaneous injection into the inguinal region with human U87 Glioblastoma tumor cells ([…]). On day 8, mice were treated p.o. with vehicle (control group; 10% hydroxypropyl-β-cyclodextrin (□)) or vehicle containing Co No. 1 at either 2.5 mg/kg (▴), 5 mg/kg (▾), 10 mg/kg (♦) or 20 mg/kg (●) for 21 days (QD×21). Subcutaneous tumor volumes and body weights were measured twice weekly, until end of study and results represented as relative tumor volumes (mm^3). Dosing period indicated under x-axis.
The minimal efficacious dose (according to the NCI standard) in this model was 5 mg/kg.
Immuno-deficient (athymic) male NMRI Nude (Nu/Nu) mice (20-25 g were obtained from Janvier, France) were used for theses studies. Initial weight was approximately […]. All animals were maintained under SPF “full barrier” conditions with free access to food and water. Mice were group housed under a 12-h light:dark cycle (lights on at 06:00 h) at a temperature of 19 to 22° C. and 35 to 40% humidity in Techniplast type-3 IVC cages. Mice were fed a standard Laboratory chow. All experiments were carried out in accordance with the European Communities Council Directives (86/609/EEC) and were approved by the local ethical committee. For an established tumor xenograft model (tumor volume ˜200 mm^3), mice were randomized according to tumor volumes, with 10 to 14 mice per treatment group.
The human U87 glioma tumor cell line was derived from a patient. Cells were cultured at 37° C. in a humidified atmosphere (5% CO2, 95% air), in DMEM medium supplemented with 2 mM L-glutamine, 2.0 mM sodium pyruvate, 25 units/ml penicillin/25 μg/ml streptomycin and 10% fetal bovine serum. Cells were maintained as cell monolayer cultures, being passaged twice weekly at 3×10^6 cells per T175 flask using the following procedure. Briefly cells were washed with PBS (without Mg^2+, Ca^2+), before addition of trypsin-EDTA to the culture flasks. After detachment of cells the trypsin-EDTA was inactivated by addition of complete medium. Cell suspension was then transferred to 50 ml Falcon tube and centrifuged for 3 min at 1200 rpm. Medium was aspirated, with the cells being re-suspended in an appropriate volume of complete medium. The cells were counted in a haemocytometer and their viability was assessed by 0.25% trypan blue exclusion. An appropriate volume of cell suspension was then added to either a new T175 culture flask(s) or roller bottle containing fresh medium. For large scale-up growth of U87 tumor cells, an appropriate number of roller bottles were seeded with 0.5 to 1×10^7 cells 1 week prior to inoculation of mice. The medium was changed twice during this period, with the last change being the day prior to cell injection. Cells were collected as described above, with the exception that after centrifugation, the cells were re-suspended in cold (4° C.) serum-free medium. Mice were injected in the inguinal region with 1×10^7 cells total in a 200 μl volume.
Human U87 glioma cells were injected directly into the inguinal region of the male NMRI Nude mice (1×10^7 cells/200 μl/animal) on day 0 (D0). […] Tumor size and body weights were measured twice weekly, with mice monitored daily for clinical signs of toxicity for the duration of the treatment. […]

Cc1cc(Nc2ccnc3c2CCC3O)ccc1NCCc1c[nH]c2c(C)cccc12 (single isomer, unassigned) [Compound No. 1]
tumor growth of pre-established U87 xenograft (10 mg/kg oral): complete tumor growth inhibition and regression
tumor growth of pre-established U87 xenograft (20 mg/kg oral): complete tumor growth inhibition and regression
minimal efficacious dose (according to the NCI standard) (U87 xenograft, oral QD x 21): 5 mg/kg
in vivo antitumoral activity (listed as Co No. 1): potent inhibition in growth

Cc1cc(Nc2ccnc3c2CCC3O)ccc1NCCc1c[nH]c2c(C)cccc12 (single isomer, unassigned) [Compound No. 2]
in vivo antitumoral activity: showed in vivo antitumoral activity
